According to patent EP3797781A1, “USE OF EC-7072 AND SYNERGIC COMPOSITIONS THEREOF IN TREATMENT OF CHRONIC LYMPHOCYTIC LEUKEMIA” (priority 2019, dated 2021):

Legend:
[1] = test system: primary fibroblasts from healthy donors; test: Cell death of primary fibroblasts by PI staining; assay type: cell-based, human; conditions: 200 nM, 24 hours; n = 4
Protocol: (§1) Effectiveness of EC-7072 against different B-cell malignancies was assessed by; • (i) incubating primary fibroblasts from healthy donors (n = 4) and HK-2 cells from healthy human adult kidney (n = 3) following treatment with MTA (200 nM) or EC-7072 (200 nM) for 24 hours. Cell death was evaluated by PI staining to obtain the percentages corresponding to the [PI^+] subset (Figure 5A) and the mean percentage of [PI^+] cells (Figure 5B); • (ii) treating MEC-1, GRANTA-519, Z-138, JVM-2, CA-46, Ramos, Raji and U266 cell lines (n = 3) following treatment with EC-7072 (500 nM) followed by incubation for 24 hours. Cell viability was assessed by DiOC6(3)/PI staining and normalized to control (DMSO) condition to obtain mean percentage of viable [DiOC6(3)^+] cells (Figure 5C).

primary CLL cells = test: Leukemia cell viability and apoptosis by DiOC6(3)/PI staining and flow cytometry; assay type: cell-based, human
Protocol: Cell viability and apoptosis were evaluated by double-staining with the mitochondrial inner transmembrane potential (ΔΨm)-sensitive dye DiOC6(3) (3,3'-dihexyloxacarbocyanine iodide; Sigma-Aldrich) and the exclusion dye propidium iodide (PI; Immunostep), allowing identification of apoptotic [DiOC6(3)^low PI^-] and dead [PI^+] cells as per Proc. Natl. Acad. Sci. U.S.A. (2014) 111(8):3020-3025 and Methods Mol. Biol. (2016) 1419:1-16. Briefly, PBMCs were resuspended in culture medium containing 20 nM DiOC6(3) and incubated for 30 minutes at 37 °C. Then, PI (1 µg/mL) was added and cells were further incubated for 10 minutes at room temperature (RT). Cells were analyzed by flow cytometry considering DiOC6(3)^+PI^- cells as viable. In some experiments, apoptosis was evaluated by staining with Annexin V/PI. Thus, PBMCs were incubated in Annexin V binding buffer containing 5 µg/mL Annexin V-FITC (Biolegend) for 15 minutes at RT and PI (1 µg/mL) was subsequently added. Data were normalized to the untreated control as a percentage. Only samples with at least 60% of viable cells (DiOC6(3)^+; Annexin V^-) in the control (DMSO) condition were employed in this study.
The in vitro cytotoxic activity of EC-7072 against primary CLL cells was assessed by: • (i) incubating PBMCs isolated from patients with CLL (n = 13) following treatment with increasing concentrations of EC-7072 (0 - 400 nM) for 24 hours. Numbers of leukemia cells were evaluated by flow cytometry and normalized to their respective control (DMSO) condition for each individual patient to obtain percentage of leukemia cells (Figure 1A); • (ii) incubating PBMCs from patients with CLL (n = 10) with or without EC-7072 (100-400 nM) for 24 hours. Viability of leukemia cells was determined by cytofluorometric assessment of DiOC6(3)/PI staining and normalized to their respective control condition to obtain percentage viability (Figure 1B); • (iii) incubating PBMCs from patients with CLL (n = 10) with increasing concentrations of EC-7072 (0 - 400 nM) for 24 hours. Apoptosis of leukemia cells was determined by DiOC6(3)/PI staining and flow cytometry to obtain the mean percentages of apoptotic [DiOC6(3)^low PI^-] and dead [PI^+] cells (Figure 1C); • (iv) incubating PBMCs from patients with CLL (n = 10) with or without EC-7072 (200 nM) for 12 to 72 hours. Viability of leukemia cells was determined by DiOC6(3)/PI staining and normalized to their respective control condition to obtain percentage viability (Figure 1D); • (v) incubating PBMCs from patients with CLL (n = 24) with MTA (200 nM) or EC-7072 (200 nM) for 24 hours. Leukemia cell death was determined by DiOC6(3)/PI staining and flow cytometry to obtain the mean percentages of apoptotic [DiOC6(3)^low PI^-] and dead [PI^+] cells (Figure 1E); • (vi) incubating PBMCs from patients with CLL (n = 63) or healthy donors (n = 20) with or without EC-7072 (200 nM) for 24 hours. Viability of leukemia cells and healthy B cells was evaluated by DiOC6(3)/PI staining and normalized to their respective control condition to obtain percentage viability (Figure 1F); • (vii) incubating PBMCs from patients with CLL (n = 62) following treatment with EC-7072 (200 nM) for 24 hours and obtaining a cytogenetic profile for each patient. Viability of leukemia cells was evaluated by DiOC6(3)/PI staining and normalized to their respective control (DMSO) condition for each individual patient to obtain the percentage of viable [DiOC6(3)^+] cells (Figure 1G); • (viii) incubating PBMCs from patients with CLL (n = 59) following treatment with EC-7072 (200 nM) for 24 hours and determining mutational status of IgHV for each patient. Viability of leukemia cells was evaluated by DiOC6(3)/PI staining and normalized to their respective control (DMSO) condition for each individual patient to obtain the percentage of viable [DiOC6(3)^+] cells (Figure 1H). […]

MEC-1 cells = test: Immunoblot of phosphorylated and total STAT3 in MEC-1 cells; assay type: cell-based; conditions: 200 nM, 0-, 3-, 8- and 12-hour time points; reduction of p-STAT3
HK-2 cells = test: Cell death of HK-2 cells by PI staining; assay type: cell-based, human; conditions: 200 nM, 24 hours; n = 3
Protocol: as §1

CO[C@@H]([C@@H]1Cc2cc3cc(O[C@H]4C[C@@H](O[C@H]5C[C@@H](O)[C@H](O)[C@@H](C)O5)[C@H](O)[C@@H](C)O4)c(C)c(O)c3c(O)c2C(=O)[C@H]1O[C@H]1C[C@@H](O[C@H]2C[C@@H](O[C@H]3C[C@](C)(O)[C@H](O)[C@@H](C)O3)[C@@H](O)[C@@H](C)O2)[C@H](O)[C@@H](C)O1)[C@@H](O)C(C)=O [EC-7072, mithramycin SK]
viability of primary human fibroblasts (PI^+ cells) [1]: did not markedly affect the viability | cell death at 6 hours (primary CLL cells; 200 nM, 6 hours, PBMCs from patients with CLL (n = 8), Figure 6C): not triggering detectable cell death | CLL cell death at 8 hours (primary CLL cells; 200 nM, 8 hours, n = 8, Figure 7K): does not result in noticeable CLL cell death | ratio of apoptosis in CLL cells relative to CLL cell death (primary CLL cells; 200 nM, 24 hours, PBMCs from patients with CLL (n = 6), exception: EC-14041, Figure 2P): higher ratio of apoptosis in CLL cells relative to CLL cell death than other mithralogs | antileukemic activity (apoptotic [DiOC6(3)^low PI^-] and dead [PI^+] cells) (primary CLL cells; 200 nM, 24 hours, PBMCs from patients with CLL (n = 24), compared with MTA 200 nM, Figure 1E): comparable to that of MTA | antileukemic activity on isolated leukemia cells versus PBMCs (apoptotic and dead cells) (primary CLL cells; 200 nM, 24 hours, isolated leukemia cells from patients with CLL (n = 24)): mimicked | viability of leukemia cells by mutational status of IgHV (primary CLL cells; 200 nM, 24 hours, n = 59, Figure 1H): did not significantly affect the sensitivity | viability of leukemia cells by cytogenetic profile (primary CLL cells; 200 nM, 24 hours, n = 62, patients with cytogenetic aberrations incl. del(17p) or del(11q), Figure 1G): no differences in the sensitivity | viability of leukemia cells (primary CLL cells; 100 - 400 nM for 24 hours, 200 nM for 12 to 72 hours, PBMCs from patients with CLL (n = 10), dose- and time-dependent, Figures 1B-1D): significantly decreased | leukemia cell survival upon BCR stimulation with anti-IgM antibodies (primary CLL cells; EC-7072 200 nM in combination with α-IgM (10 µg/mL), 24 hours, n = 15): significantly rescued leukemia cell survival | leukemia cell death in the presence of microenvironment-derived soluble factors (primary CLL cells; EC-7072 200 nM with CD40L (100 ng/mL), BAFF (50 ng/mL), TNF-α (40 ng/mL), IL-6 (40 ng/mL) or IL-4 (40 ng/mL), 24 hours, n = 7): none of the soluble factors tested significantly affected the leukemia cell death | leukemia cell viability in co-culture with OP9 stromal cells (primary CLL cells; co-culture with OP9 cells 72 hours, EC-7072 200 nM for the last 24 hours, n = 7): did not enhance leukemia cell viability | percentage viability of leukemia cells, comparison of mithralogs (primary CLL cells; each at 200 nM, 24 hours, PBMCs from patients with CLL (n = 10), Figure 2M): second only to the mithralog EC-7073 | CLL cell viability compared with idelalisib or fludarabine (primary CLL cells; range of doses, EC-7072 and fludarabine 24 hours, idelalisib 48 hours, n = 4 - 6, Figure 4A): reduced CLL cell viability to a greater extent than idelalisib or fludarabine | levels of p-STAT3 in MEC-1 (MEC-1 cells): further confirmed | viability of HK-2 cells (PI^+ cells) (HK-2 cells): did not markedly affect the viability
